Tested on: patients with atrial fibrillation
Experiment: Placebo-controlled ascending dose study of intravenous tedisamil: conversion to normal sinus rhythm, patients with atrial fibrillation
Format: in vivo, human
Settings: for Conversion to NSR at any time within 2.5 hrs after the start of infusion (patients converted out of total) / Conversion to NSR at any time within 2.5 hrs and remaining in NSR until 2.5 hrs after the start of infusion (patients out of total) / Conversion to NSR at any time within 2.5 hrs and remaining in NSR until 2.5 hrs after the start of infusion (percentage of patients) / Conversion to NSR at any time within 2.5 hrs and remaining in NSR until 24 hrs after the start of infusion (patients out of total) / Conversion to NSR at any time within 2.5 hrs and remaining in NSR until 24 hrs after the start of infusion (percentage of patients) / Conversion to NSR at any time within 24 hrs after the start of infusion (patients out of total) / Conversion to NSR at any time within 24 hrs after the start of infusion (percentage of patients) / Conversion to NSR at any time within 24 hrs and remaining in NSR until 24 hrs after the start of infusion (patients out of total) / Conversion to NSR at any time within 24 hrs and remaining in NSR until 24 hrs after the start of infusion (percentage of patients): patients with atrial fibrillation
Protocol: A Multi-Center, Double-Blind, Randomized, Placebo-Controlled, Sequential Ascending Dose Groups Study to evaluate the Efficacy and Safety of Intravenous Tedisamil in the Rapid Conversion to Normal Sinus Rhythm in Patients with Atrial Fibrillation or Flutter was performed.
• Tedisamil (0.4 mg/kg body weight) • Tedisamil (0.6 mg/kg body weight) • Placebo • Dosages were given as a 30 minute intravenous infusion regimen. 1. Study Design
This multicenter trial was a double-blind, randomized, placebo-controlled, ascending dose groups study comparing the efficacy and safety of intravenous tedisamil treatment versus placebo in symptomatic patients with atrial fibrillation or flutter (>3 hours and <48 hours). The primary efficacy endpoint of this study was the termination of atrial fibrillation or flutter (for at least 60 seconds) within 2.5 hours after start of the infusion.
Following screening and baseline assessments, eligible patients were randomized to tedisamil or placebo with a sequential dose escalation approach. In the first stage, patients received 0.4 mg tedisamil/kg body weight or placebo over a 30 minutes infusion period, with half the dose infused during the first 10 minutes and half the dose infused over the remaining 20 minutes. After interim safety evaluation, in the second stage, patients received 0.6 mg tedisamil/kg body weight or placebo, with the same infusion regimen.
Patients were discharged from the telemetry unit 24 hours post infusion and safety follow up was to be obtained after 28 days. Blinded reviews of 12-lead ECGs (including 60 seconds rhythm strip) and 24 hour Holters to adjudicate the clinical endpoint (conversion to normal sinus rhythm) were performed centrally according to standard guidelines.
Tedisamil dihydrochloride, 0.4 mg/kg body weight, 0.6.mg/kg body weight was administered intravenously. The total infusion time was 30 minutes, with half the dose infused within 10 minutes, and half the dose infused within the remaining 20 minutes.
The percentage of patients converted to normal sinus rhythm (for at least 60 seconds) at any time within 2.5 hours after the initiation of the infusion of study drug.
6.1.2 Secondary Efficacy • The percentage of patients converted to normal sinus rhythm (for at least 60 seconds) at any time within 2.5 hrs and remaining in sinus rhythm until 2.5 hours after initiation of the intravenous infusion of tedisamil versus placebo. • The percentage of patients converted to normal sinus rhythm (for at least 60 seconds) at any time within 24 hours after initiation of the intravenous infusion of tedisamil versus placebo. • The percentage of patients converted to normal sinus rhythm (for at least 60 seconds) at any time within 24 hrs and remaining in sinus rhythm until 24 hours after initiation of the intravenous infusion of tedisamil versus placebo. • The percentage of patients converted to normal sinus rhythm (for at least 60 seconds) at any time within 2.5 hrs and remaining in sinus rhythm until 24 hours after initiation of the intravenous infusion of tedisamil versus placebo. • The time to conversion after the start of the infusion of tedisamil versus placebo. • The dose- and concentration-response relationships of tedisamil versus placebo.
The intent-to-treat patient sample was analyzed for efficacy. All tests were two-sided and a p-value <0.05 was considered significant. Differences in percentages of conversion were compared among the treatment groups using the Pearson chi-square statistic. Safety analysis was conducted on the safety patient sample. Numbers and percentages of patients with adverse events were calculated for each treatment group, using MedDRA preferred terms and body systems. Descriptive statistics were summarized by treatment group for changes from baseline in QT, heart rate and blood pressure. […]

[1] = 0.4 mg/kg iv two-step 30 minute infusion
[2] = 0.6 mg/kg iv two-step 30 minute infusion
[3] = Atrial Fibrillation, Female, 0.4 mg/kg, ITT patient sample, patients with DC cardioversion excluded
[4] = Atrial Fibrillation, Female, 0.6 mg/kg, ITT patient sample, patients with DC cardioversion excluded
[5] = Atrial Fibrillation, Male, 0.4 mg/kg, ITT patient sample, patients with DC cardioversion excluded
[6] = Atrial Fibrillation, Male, 0.6 mg/kg, ITT patient sample, patients with DC cardioversion excluded
[7] = atrial fibrillation, Female, <65 yrs, 0.4 mg/kg, ITT, DC cardioversion excluded
[8] = atrial fibrillation, Female, <65 yrs, 0.6 mg/kg, ITT, DC cardioversion excluded
[9] = atrial fibrillation, Female, >=65 yrs, 0.4 mg/kg, ITT, DC cardioversion excluded
[10] = atrial fibrillation, Female, >=65 yrs, 0.6 mg/kg, ITT, DC cardioversion excluded
[11] = atrial fibrillation, Male, <65 yrs, 0.4 mg/kg, ITT, DC cardioversion excluded

C1CCC2(C1)C1CN(CC3CC3)CC2CN(CC2CC2)C1 [Tedisamil, N,N′-dicyclopropylmethyl-9,9-tetramethylene-3,7-diazabicyclo[3,3,1]nonane]
Conversion to NSR at any time within 2.5 hrs after the start of infusion (patients converted out of total) [1]: 24 out of 52 | Conversion to NSR at any time within 2.5 hrs and remaining in NSR until 2.5 hrs after the start of infusion (patients out of total) [1]: 23 out of 52 | Conversion to NSR at any time within 2.5 hrs and remaining in NSR until 2.5 hrs after the start of infusion (percentage of patients) [1]: (44%) | Conversion to NSR at any time within 2.5 hrs and remaining in NSR until 24 hrs after the start of infusion (patients out of total) [1]: 22 out of 42 | Conversion to NSR at any time within 2.5 hrs and remaining in NSR until 24 hrs after the start of infusion (percentage of patients) [1]: (52%) | Conversion to NSR at any time within 24 hrs after the start of infusion (patients out of total) [1]: 26 out of 42 | Conversion to NSR at any time within 24 hrs after the start of infusion (percentage of patients) [1]: (62%) | Conversion to NSR at any time within 24 hrs and remaining in NSR until 24 hrs after the start of infusion (patients out of total) [1]: 24 out of 42 | Conversion to NSR at any time within 24 hrs and remaining in NSR until 24 hrs after the start of infusion (percentage of patients) [1]: (57%) | Conversion to NSR at any time within 2.5 hrs after the start of infusion (patients converted out of total) [2]: 24 out of 42 | Conversion to NSR at any time within 2.5 hrs and remaining in NSR until 2.5 hrs after the start of infusion (patients out of total) [2]: 24 out of 42 | Conversion to NSR at any time within 2.5 hrs and remaining in NSR until 2.5 hrs after the start of infusion (percentage of patients) [2]: (57%) | Conversion to NSR at any time within 2.5 hrs and remaining in NSR until 24 hrs after the start of infusion (patients out of total) [2]: 22 out of 37 | Conversion to NSR at any time within 2.5 hrs and remaining in NSR until 24 hrs after the start of infusion (percentage of patients) [2]: (59%) | Conversion to NSR at any time within 24 hrs after the start of infusion (patients out of total) [2]: 26 out of 37 | Conversion to NSR at any time within 24 hrs after the start of infusion (percentage of patients) [2]: (70%) | Conversion to NSR at any time within 24 hrs and remaining in NSR until 24 hrs after the start of infusion (patients out of total) [2]: 24 out of 37 | Conversion to NSR at any time within 24 hrs and remaining in NSR until 24 hrs after the start of infusion (percentage of patients) [2]: (65%) | Conversion to NSR at any time within 2.5 hrs after start of infusion (%) [3]: 35.3% | Conversion to NSR at any time within 2.5 hrs after start of infusion (converted/total) [3]: 6/17 | Conversion to NSR at any time within 2.5 hrs after start of infusion (%) [4]: 37.5% | Conversion to NSR at any time within 2.5 hrs after start of infusion (converted/total) [4]: 6/16 | Conversion to NSR at any time within 2.5 hrs after start of infusion (%) [5]: 51.4% | Conversion to NSR at any time within 2.5 hrs after start of infusion (converted/total) [5]: 18/35 | Conversion to NSR at any time within 2.5 hrs after start of infusion (%) [6]: 69.2% | Conversion to NSR at any time within 2.5 hrs after start of infusion (converted/total) [6]: 18/26 | Conversion to NSR at any time within 2.5 hrs after start of infusion (%) [7]: 40.0% | Conversion to NSR at any time within 2.5 hrs after start of infusion (converted/total) [7]: 2/5 | Conversion to NSR at any time within 2.5 hrs after start of infusion (%) [8]: 33.3% | Conversion to NSR at any time within 2.5 hrs after start of infusion (converted/total) [8]: 1/3 | Conversion to NSR at any time within 2.5 hrs after start of infusion (%) [9]: 33.3% | Conversion to NSR at any time within 2.5 hrs after start of infusion (converted/total) [9]: 4/12 | Conversion to NSR at any time within 2.5 hrs after start of infusion (%) [10]: 38.5% | Conversion to NSR at any time within 2.5 hrs after start of infusion (converted/total) [10]: 5/13 | Conversion to NSR at any time within 2.5 hrs after start of infusion (%) [11]: 50.0% | Conversion to NSR at any time within 2.5 hrs after start of infusion (converted/total) [11]: 10/20

From US7087620B2, “Liquid pharmaceutical formulations containing 3,7-diazabicyclo[3,3,1]nonane compounds and methods of treatment relating to anti-arrhythmic events” (Solvay Pharmaceuticals GmbH, priority 2002, dated 2006)
